According to patent publication US12171807B2, “Use of bremelanotide in patients with controlled hypertension” (Cosette Pharmaceuticals, Inc., priority 2020, dated 2024):

Tests used:
[1] = Repeat dosing ambulatory blood pressure monitoring study, bremelanotide 1.75 mg SC daily for 8 days then randomized withdrawal (days 9 to 16); assay type: in vivo, human; details: for mean change (95% CI) in daytime systolic BP: day 8; for Difference from Baseline, daytime diastolic BP at Day 8 / Difference from Baseline, daytime systolic BP at Day 8: BP in mmHg
Description: The study focusing on the impact of repeat dosing on blood pressure included 127 women treated with bremelanotide 1.75 mg administered subcutaneously (SC) daily for 8 consecutive days, followed by a randomized withdrawal period of 8 additional consecutive days (days 9 to 16) in which study participants were randomized to either remain on bremelanotide 1.75 mg SC daily or placebo SC daily. Ambulatory blood pressure monitoring was performed on baseline day −1 (single blind placebo), day 8 and on day 16. After 8 days of dosing of bremelanotide 1.75 mg SC, the mean changes from baseline in the 24 hour systolic and diastolic BPs (FIG. 1) were below 2 mmHg. Importantly, the upper bound of the 95% confidence interval for the mean changes in daytime systolic BP (a pre-specified outcome) was below 4 mmHg. These increases in BP were accompanied by small to no reductions in the heart rate of 1 beat/minute or less.
There were 122 (96%) study participants who completed the randomized withdrawal portion of the study. […] In those randomized to placebo, returns toward baseline BP values were observed (generally a 2 mmHg decline from day 8).
The patient population was comprised of normotensive premenopausal women and included 2 women with a medical history of hypertension on antihypertensive therapy. One subject was being treated for hypertension with Lisinopril. The other subject was being treated for hypertension with chlorthalidone. Both subjects received all 16 injections; 8 doses in the Open-Label Period and 8 doses in the Randomized Withdrawal Period (one subject was randomized to each treatment group). […] The mean changes from Baseline (Day −1) at Day 8 during daytime in these two subjects are shown in the below table. Changes in daytime HR at Day 8 were −1.7 bpm for the subject and −1.4 bpm for the subject.
In order to better understand the potential effects of the drug in patients with higher BP values at baseline, an exploratory analysis was performed from the trial evaluating those women whose baseline BP was in the 90th percentile (pre-dose systolic BP >124 mmHg) to determine if the pressor response of bremelanotide differed from those study participants whose baseline BP was below the 90th percentile (pre-dose systolic BP <124 mmHg). At day 8, mean changes (95% CI) from the daytime systolic BP in those study participants in the 90th percentile or greater (n=17) at baseline was −0.16 (−2.06, 1.75) mmHg versus 2.03 (1.70, 2.36) mmHg in those whose baseline systolic BP was below the 90th percentile.

[2] = Blood pressure by time post-dose, Bremelanotide 2 mg SC vs placebo; assay type: in vivo; details: 2 mg SC (n = 30)
[3] = repeat doses of BMT; review of IND 64119; cited from earlier work
[4] = Repeat dosing ambulatory blood pressure monitoring study, bremelanotide 1.75 mg SC daily for 8 days then randomized withdrawal (days 9 to 16); assay type: in vivo, human; details: after 16 days of dosing of bremelanotide 1.75 mg SC
[5] = Pressor effect in obese women receiving supratherapeutic doses (6.5 mg daily) for 15 days; assay type: in vivo, human; details: 15 days at 6.5 mg daily
[6] = Drug-drug interaction study with antihypertensive agents, single dose bremelanotide 1.75 mg SC vs placebo, ambulatory BP monitoring; assay type: in vivo, human
Description: An additional study evaluated the effects of single doses of bremelanotide 1.75 mg SC and placebo SC in normotensive, healthy women pre-treated with 5 different classes of antihypertensive drugs in a double-blind cross-over design using ambulatory BP monitoring. The washout period between randomized, blinded treatments was 48 hours. This study included both premenopausal and postmenopausal women. There were 15 healthy […] subjects in each panel of the antihypertensive medications with the exception of the beta-blocker metoprolol (n=17). Blood pressures at baseline in the various panels were low normal (24 hour systolic BPs ranging from 109 to 114 mmHg and 24 hour diastolic BPs ranging from 67 to 72 mmHg (FIG. 2). The placebo-corrected changes from baseline in the 24-hour systolic BPs on bremelanotide 1.75 mg SC ranged from 1.7 mmHg on amlodipine to 3.8 mmHg on hydrochlorothiazide; changes in the 24 hour diastolic BPs ranged from 1.8 mmHg on metoprolol to 2.8 mmHg on lisinopril. In 4 of the 5 classes of antihypertensive medications, nighttime BP changes were substantially lower than daytime BP changes. In study participants pre-treated with hydrochlorothiazide 12.5 mg daily, nighttime BPs increased by 5.5/4.5 mmHg. In review of individual subjects in the HCTZ panel, it was noted that 4 study participants had large reductions in nighttime SBP (10-15 mmHg) on placebo while on bremelanotide 4 study participants had large increases in nighttime SBP (10-15 mmHg).
1. […] There was an elevation in nighttime BP in patients pre-treated with hydrochlorothiazide 12.5 mg, which has no apparent pharmacologic basis and is like the result of random variability in both the bremelanotide and placebo sub-groups. As noted, there was no similar finding in the 4 other antihypertensive panels.

[7] = 2 women with history of hypertension on antihypertensive therapy
[8] = 61 women, 1.75 mg SC for 16 consecutive days
[9] = following 8 consecutive days of dosing
[10] = subject treated with Lisinopril
[11] = subject treated with chlorthalidone
[12] = subject with hypertension treated with Lisinopril, baseline (Day −1) 105/70 mmHg
[13] = subject with hypertension treated with chlorthalidone, baseline (Day −1) 121/81 mmHg
[14] = single dose 1.75 mg SC, pre-treated with hydrochlorothiazide 12.5 mg daily

Q: With CCCC[C@H](NC(C)=O)C(=O)N[C@H]1CC(=O)NCCCC[C@@H](C(=O)O)NC(=O)[C@H](Cc2c[nH]c3ccccc23)NC(=O)[C@H](CCCN=C(N)N)NC(=O)[C@@H](Cc2ccccc2)NC(=O)[C@H](Cc2cnc[nH]2)NC1=O [bremelanotide, Ac-Nle-cyclo(-Asp-His-D-Phe-Arg-Trp-Lys)-OH] as the compound, how does the “outlier analysis: systolic BP elevation of >150 mmHg or diastolic BP elevation >95 mmHg lasting for 120 minutes” value ([1]; 1.75 mg SC daily) read?
A: 1 (0.8%) study participants (%)

Q: And the “outlier analysis: systolic BP elevation of >160 mmHg or diastolic BP elevation of >100 mmHg lasting more than 90 minutes” value ([1]; 1.75 mg SC daily)?
A: 2 (1.6%) study participants (%)

Q: What about the “abnormalities on ECG” value [1, 7] of the same compound?
A: neither subject had clinically significant abnormalities on ECG

Q: And the “cardiovascular TEAE” value [1, 7]?
A: No cardiovascular TEAE were reported

Q: And the “intensity of TEAE” value [1, 7]?
A: all were mild in intensity

Q: What about the “increases in 24 hour BP from placebo baseline (Day −1)” value [1, 8] of the same compound?
A: < 1 mmHg

Q: And the “increases in average daytime BPs from placebo baseline (Day −1)” value [1, 8]?
A: < 1.5 mmHg

Q: What about the “cumulative effect on daytime BP or heart rate compared to baseline or day 8” value ([1]; 16 days of consecutive administration) of the same compound?
A: no cumulative increases in daytime BP or reductions in heart rate

Q: And the “reductions in the heart rate” value ([1]; after 8 days of 1.75 mg SC daily)?
A: ≤ 1 beat/minute

Q: What about the “mean change from baseline in 24 hour diastolic BP” value ([1]; after 8 days of 1.75 mg SC daily, 127 women) of the same compound?
A: below 2 mmHg

Q: What about the “mean change (95% CI) in daytime systolic BP” value ([1]; baseline BP in the 90th percentile or greater (pre-dose systolic BP >124 mmHg), n=17) of the same compound?
A: −0.16 (−2.06, 1.75) mmHg

Q: What about the “mean change (95% CI) in daytime systolic BP” value ([1]; baseline systolic BP below the 90th percentile) of the same compound?
A: 2.03 (1.70, 2.36) mmHg

Q: What about the “time of peak effects on BP post-dose” value [1, 9] of the same compound?
A: 3 to 5 h

Q: And the “time post-dose by which BP effect attenuated” value [1, 9]?
A: ≤ 8 h

Q: What about the “nighttime BP” value ([1]; following 8 days of consecutive therapy) of the same compound?
A: no increases in nighttime BP

Q: What about the “complications or symptoms associated with transient stage 2 hypertension levels” value ([1]; outlier subjects) of the same compound?
A: In none of these subjects were there complications or symptoms

Q: And the “Change in daytime HR at Day 8” value [1, 10]?
A: −1.7 bpm

Q: And the “Difference from Baseline, daytime diastolic BP at Day 8” value [1, 10]?
A: +4 diastolic

Q: What about the “Difference from Baseline, daytime systolic BP at Day 8” value [1, 10] of the same compound?
A: +3 systolic;

Q: What about the “Change in daytime HR at Day 8” value [1, 11] of the same compound?
A: −1.4 bpm

Q: And the “Difference from Baseline, daytime diastolic BP at Day 8” value [1, 11]?
A: −4 diastolic

Q: And the “Difference from Baseline, daytime systolic BP at Day 8” value [1, 11]?
A: −9 systolic;

Q: What about the “Day 8 Daytime BP, diastolic” value [1, 12] of the same compound?
A: 74 mmHg

Q: What about the “Day 8 Daytime BP, systolic” value [1, 12] of the same compound?
A: 108 mmHg

Q: What about the “Day 8 Daytime BP, diastolic” value [1, 13] of the same compound?
A: 77 mmHg

Q: What about the “Day 8 Daytime BP, systolic” value [1, 13] of the same compound?
A: 112 mmHg

Q: What about the “Diastolic Blood Pressure” value ([2]; Hour 1 post-dose) of the same compound?
A: 1.00 (−3.13, 5.13)

Q: And the “Systolic Blood Pressure” value ([2]; Hour 1 post-dose)?
A: 2.36 (−2.15, 6.87)

Q: What about the “Diastolic Blood Pressure” value ([2]; Hour 2 post-dose) of the same compound?
A: 1.03 (−2.96, 5.02)

Q: What about the “Systolic Blood Pressure” value ([2]; Hour 2 post-dose) of the same compound?
A: 0.01 (−4.18, 4.20)

Q: And the “Diastolic Blood Pressure” value ([2]; Hour 3 post-dose)?
A: 1.26 (−2.74, 5.26)

Q: What about the “Systolic Blood Pressure” value ([2]; Hour 3 post-dose) of the same compound?
A: 0.84 (−3.55, 5.23)

Q: What about the “Diastolic Blood Pressure” value ([2]; Hour 4 post-dose) of the same compound?
A: −1.38 (−6.00, 3.24)

Q: And the “Systolic Blood Pressure” value ([2]; Hour 4 post-dose)?
A: 0.38 (−3.13, 3.90)

Q: And the “duration of blood pressure effect” value [3]?
A: at least four hours

Q: And the “increases in systolic and diastolic blood pressures” value [3]?
A: approximately 4 mmHg

Q: What about the “daytime systolic BP change by baseline BP percentile, trend” value [4] of the same compound?
A: Trends were similar

Q: What about the “cumulative effect on blood pressure or heart rate” value [5] of the same compound?
A: no evidence for a cumulative effect on blood pressure or heart rate

Q: And the “large increases in nighttime SBP in individual subjects” value ([6]; 4 study participants of the HCTZ panel on bremelanotide)?
A: 10-15 mmHg

Q: What about the “induction of hypertension by BP increases” value ([6]; single dose 1.75 mg SC, healthy women on antihypertensive therapy at steady-state) of the same compound?
A: did not induce hypertension

Q: And the “nighttime BP increase, diastolic” value [6, 14]?
A: 4.5 mmHg

Q: And the “nighttime BP increase, systolic” value [6, 14]?
A: 5.5 mmHg

Q: And the “placebo-corrected change from baseline in 24-hour systolic BP” value ([6]; single dose 1.75 mg SC, women pre-treated with amlodipine)?
A: 1.7 mmHg

Q: What about the “placebo-corrected change from baseline in 24-hour systolic BP” value ([6]; single dose 1.75 mg SC, women pre-treated with hydrochlorothiazide) of the same compound?
A: 3.8 mmHg

Q: What about the “placebo-corrected change from baseline in 24 hour diastolic BP” value ([6]; single dose 1.75 mg SC, women pre-treated with lisinopril) of the same compound?
A: 2.8 mmHg

Q: What about the “placebo-corrected change from baseline in 24 hour diastolic BP” value ([6]; single dose 1.75 mg SC, women pre-treated with metoprolol) of the same compound?
A: 1.8 mmHg
